Test results as given in article PMC8568530, “Inhibition of Vascular Smooth Muscle and Cancer Cell Proliferation by New VEGFR Inhibitors and Their Immunomodulator Effect: Design, Synthesis, and Biological Evaluation” (Oxidative Medicine and Cellular Longevity, 2021).
“Also recorded” adds a separate entry of the source.

Key:
[1] = target: VEGFR-2 (Homo sapiens, UniProt P35968); experiment: In vitro VEGFR-2 enzyme inhibition assay; assay type: biochemical; conditions: read-out: IC50 against VEGFR-2
VEGFR-2, sequence (P35968 20-1356): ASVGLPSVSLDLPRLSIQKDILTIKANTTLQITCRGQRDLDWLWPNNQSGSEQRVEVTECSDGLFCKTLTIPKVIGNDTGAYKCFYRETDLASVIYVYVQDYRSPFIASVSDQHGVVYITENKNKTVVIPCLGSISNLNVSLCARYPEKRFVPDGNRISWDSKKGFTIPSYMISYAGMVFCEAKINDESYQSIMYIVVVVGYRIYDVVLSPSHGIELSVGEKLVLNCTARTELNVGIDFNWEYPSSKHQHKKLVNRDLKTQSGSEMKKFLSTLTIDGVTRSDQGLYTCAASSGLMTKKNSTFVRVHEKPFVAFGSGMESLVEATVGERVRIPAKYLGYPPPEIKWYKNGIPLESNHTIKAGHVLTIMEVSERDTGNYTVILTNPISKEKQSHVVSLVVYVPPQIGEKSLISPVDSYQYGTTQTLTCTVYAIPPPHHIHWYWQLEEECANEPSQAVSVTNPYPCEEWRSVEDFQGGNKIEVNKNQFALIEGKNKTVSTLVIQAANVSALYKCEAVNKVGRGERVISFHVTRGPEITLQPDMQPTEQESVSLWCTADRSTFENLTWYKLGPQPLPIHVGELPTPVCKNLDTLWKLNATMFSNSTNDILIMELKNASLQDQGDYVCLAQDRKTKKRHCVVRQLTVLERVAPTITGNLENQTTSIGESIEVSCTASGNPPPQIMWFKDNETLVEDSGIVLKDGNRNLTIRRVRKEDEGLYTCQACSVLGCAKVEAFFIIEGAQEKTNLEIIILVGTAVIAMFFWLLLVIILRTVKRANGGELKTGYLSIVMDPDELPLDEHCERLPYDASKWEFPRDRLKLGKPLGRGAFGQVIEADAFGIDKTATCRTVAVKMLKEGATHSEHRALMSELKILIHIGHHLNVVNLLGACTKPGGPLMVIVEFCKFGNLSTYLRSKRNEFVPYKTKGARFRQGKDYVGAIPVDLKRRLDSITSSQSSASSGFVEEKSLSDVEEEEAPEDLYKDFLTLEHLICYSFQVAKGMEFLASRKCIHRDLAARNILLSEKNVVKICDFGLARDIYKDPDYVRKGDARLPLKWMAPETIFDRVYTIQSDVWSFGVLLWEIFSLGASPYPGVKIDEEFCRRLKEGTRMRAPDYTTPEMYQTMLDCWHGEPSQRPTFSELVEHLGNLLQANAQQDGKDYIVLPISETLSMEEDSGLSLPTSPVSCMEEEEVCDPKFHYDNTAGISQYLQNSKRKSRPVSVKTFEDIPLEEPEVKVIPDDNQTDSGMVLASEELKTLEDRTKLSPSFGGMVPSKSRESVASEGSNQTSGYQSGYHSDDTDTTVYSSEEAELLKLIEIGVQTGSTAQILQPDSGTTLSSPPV

[2] = test system: VEGFR-2 protein expression; experiment: Western blot of VEGFR-2 protein expression; assay type: cell-based, human; conditions: HepG-2 cells, 10 h exposure, versus blank
Text: (4) Effect of Compound 7a on VEGFR-2 Protein Expression.

[3] = test system: vascular smooth muscle cells (VSMCs); experiment: Vascular smooth muscle cell proliferation; assay type: cell-based; conditions: 2.5, 5, and 10 μM, 48 h
Procedure: In order to examine its effect on the proliferation of vascular smooth muscle cells (VSMCs), VSMCs were treated with increasing concentrations of compound 7a (2.5, 5, and 10 μM) for 48 h. The cellular proliferation results are illustrated in Figure 9.
VSMCs were isolated and cultured following the reported method (Supplementary data).

[4] = test system: caspase-3; experiment: Active caspase-3 level in HepG-2 cells; assay type: cell-based, human; conditions: HepG-2 cells treated with compound
Text: (1) Effects on the Levels of Active Caspase-3. A significant mechanism by which anticancer agents can affect cancer cells is apoptosis. Apoptosis is a process of automated cell death. The apoptosis mechanism is typically mediated by a group of proteases called caspases. Caspase-3 is activated in every mammalian cell type provoking the cell to die, considered one of the apoptosis marks.
(1) Effects on the Levels of Active Caspase-3. […] (Supplementary data).

[5] = test system: HepG-2 cells; experiment: Cell cycle analysis by flow cytometry; assay type: cell-based, human; conditions: HepG-2, compound at its IC50 concentration
Procedure: (3) Cell Cycle Analysis. For further investigation of the apoptotic capacity of compound 7a, flow cytometric analysis was carried out on the HepG-2 cancer cell line treated with the tested compound at its IC50 concentrations using untreated HepG-2 cancer cells as a negative control. […] Accumulation of cells at the G2-M phase for 7a was estimated to be 46.74% versus 23.11% accumulation for control HepG-2 cells.
(3) Cell Cycle Analysis. According to the method described by Léonce et al., the flow cytometric analysis for compound 7a was performed (Supplementary data).

[6] = test system: WI-38 cell line (normal human lung fibroblasts); experiment: MTT cytotoxicity against normal cells WI-38; assay type: cell-based; conditions: normal human lung fibroblasts WI-38
Procedure: The cytotoxicity values of the synthesized compounds against the WI-38 cell line (normal human lung fibroblasts) were also evaluated in vitro.
The antiproliferative activity of the synthesized compounds was evaluated using MTT protocol as described (Supplementary data (available here)).

[7] = test system: TNF-α; experiment: TNF-α in HepG-2 supernatant (ELISA); assay type: cell-based, human
Text: (1) Estimation of Human Tumor Necrosis Factor Alpha (TNF-α) in HepG-2 Supernatant. […] Celecoxib, a potent inhibitor of TNF-α-induced cytokine expressions, was used as a positive control. […] Among the tested compounds, compound 7a caused a remarkably significant reduction in TNF-α levels (87%) in comparison to celecoxib (86%).
The levels of TNF-α in cell culture supernatants were estimated by the ELISA technique according to the reported procedure.

[8] = test system: BAX; experiment: BAX level in HepG-2 cells; assay type: cell-based, human
Text: (§1) (2) Effects on Bcl-2 Family Proteins. The Bcl-2 family proteins are vital regulators of apoptosis cell death. Members of this family include the proapoptotic factor Bax which promotes cell death and the prosurvival (antiapoptotic) Bcl-2 which suppresses cell death. […] Results are expressed in Table 3.
(§2) (2) Effects on Bcl-2 Family Proteins. […] (Supplementary data).

[9] = test system: MCF-7; experiment: MTT antiproliferative assay, MCF-7; assay type: cell-based; conditions: Homo sapiens, MCF7, breast cancer MCF-7
[10] = test system: HepG-2 cells; experiment: Annexin V-FITC/PI apoptosis assay; assay type: cell-based, human; conditions: HepG-2, IC50 dose (2.17 μM), 24 h
Procedure: (5) Apoptotic Cell Subpopulation Determination. To support the fact that derivative 7a induces apoptosis in the HepG-2 cancer cell line, annexin V-FITC and PI double-staining assay protocol was used. […] This is evidence that the antiproliferative activities are associated with a proapoptotic effect of the tested compound.
(4) Apoptotic Cell Subpopulation Determination. The annexin-V-FITC assay for compound 7a on HepG-2 cells was performed according to the reported procedure (Supplementary data).

[11] = test system: HepG-2; experiment: MTT antiproliferative assay, HepG-2; assay type: cell-based; conditions: Homo sapiens, HepG2, hepatocellular carcinoma HepG-2
[12] = test system: HCT-116; experiment: MTT antiproliferative assay, HCT-116; assay type: cell-based; conditions: Homo sapiens, colorectal carcinoma HCT-116
[13] = test system: Bcl-2; experiment: Bcl-2 level in HepG-2 cells; assay type: cell-based, human
Text: as §1, §2

[14] = HepG-2 cells treated with compound

For `COc1cccc(NC(=O)c2ccc(NC(=O)c3cccnc3)cc2)c1` [Compound 7a, N-(4-((3-Methoxyphenyl)carbamoyl)phenyl)nicotinamide], the IC50 [1] was 2170 nM, the “effect on VEGFR-2 protein expression” value [2] was “downregulated the expression of VEGFR-2 protein” and the “effect on VSMC proliferation” value [3] was “potent inhibitory effect; also recorded: significant antiproliferative effect at all concentrations tested”. The “Caspase 3 Conc.” value [4] was 401.15 pg/mL, the “accumulation of cells at the G2-M phase” value [5] was 46.74% and the “apoptotic cells at the pre-G1 phase” value [5] was 10.5%. The “percentage of cells at G1” value [5] was 30.15%, the “percentage of cells at the S phase” value [5] was 22.11% and the IC50 [6] was 60.8 µM. The TNF-α % inhibition [7] was 87%, the “BAX Conc.” value [8, 14] was 261.4 pg/mL and the “BAX Fold” value ([8]; HepG-2 cells, versus control) was 12.11 fold. It also gave an IC50 [9] of 1370 nM, an early apoptotic population [10] of 7.41% and a late apoptotic population [10] of 6.80%. The IC50 [11] was 1050 nM, the IC50 [12] was 1460 nM and the “Bcl-2 Conc.” value [13, 14] was 1.25 pg/mL. The “Bcl-2 Fold” value ([13]; HepG-2 cells, versus control) was 0.23 fold.
